Measurements taken from ChEMBL document CHEMBL1127272, “2-Aryl-1-azabicyclo[2.2.2]octanes as novel nonpeptide substance P antagonists” (Bioorg Med Chem Lett, 1994).

Legend:
Substance-P receptor [1] = biological target: T1, Substance-P receptor (Homo sapiens, UniProt P25103); test: Inhibitory concentration for displacement of [3H]-Substance P (SP) in human IM-9 cells; type: cell-based
Substance-P receptor [2] = biological target: T1, Substance-P receptor; test: Tested for Tachykinin receptor 1 antagonistic activity in dog isolated carotid artery(DCA) system at a concentration of 5*10e-6 M; type: functional; details: Canis lupus familiaris; target entry is the homologue from another species

T1 sequence (P25103 whole entry): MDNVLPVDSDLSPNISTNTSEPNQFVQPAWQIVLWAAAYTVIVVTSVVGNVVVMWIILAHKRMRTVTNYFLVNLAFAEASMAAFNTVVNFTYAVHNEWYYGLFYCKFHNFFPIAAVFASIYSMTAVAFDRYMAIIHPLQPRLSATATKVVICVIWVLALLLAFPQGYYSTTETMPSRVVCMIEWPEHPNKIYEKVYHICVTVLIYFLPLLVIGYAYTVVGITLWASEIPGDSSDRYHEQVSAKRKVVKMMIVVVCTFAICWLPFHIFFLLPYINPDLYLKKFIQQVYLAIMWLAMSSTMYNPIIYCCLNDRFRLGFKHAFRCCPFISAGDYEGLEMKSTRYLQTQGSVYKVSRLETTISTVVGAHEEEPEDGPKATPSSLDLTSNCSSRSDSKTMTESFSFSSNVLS

| SMILES | IC50 (Substance-P receptor [1]) [nM] | pKB (Substance-P receptor [2]) |
| --- | --- | --- |
| Clc1cccc([C@H]2[C@@H](NCc3ccccc3Cl)C3CCN2CC3)c1 | 230 | – |
| COc1ccccc1CN[C@H]1C2CCN(CC2)[C@H]1c1ccccc1 | 140 | – |
| COc1ccccc1CN[C@@H]1C2CCN(CC2)[C@H]1c1ccccc1 | 700 | – |
| COc1cccc([C@H]2[C@@H](NCc3ccccc3OC)C3CCN2CC3)c1 | 160 | – |
| COc1ccc(CN[C@@H]2C3CCN(CC3)[C@@H]2c2cccc(Cl)c2)c(OC)c1 (single isomer, unassigned) | 39 | – |
| COc1ccccc1CN[C@@H]1C2CCN(CC2)[C@H]1c1cccc(Cl)c1 | 240 | – |
| COc1ccccc1CN[C@H]1C2CCN(CC2)[C@H]1c1cccc(Cl)c1 | 20 | – |
| COc1ccc(CN[C@H]2C3CCN(CC3)[C@@H]2c2cccc(Cl)c2)c(OC)c1 | 350 | – |
| COc1ccc(CN[C@H]2C3CCN(CC3)[C@H]2c2cccc(Cl)c2)c(OC)c1 | – | 7 |
